From PMC8286840, “Identifying SARS-CoV-2 antiviral compounds by screening for small molecule inhibitors of Nsp3 papain-like protease” (Biochemical Journal, 2021)
Counter-ions that a name gives are not always drawn. Like-named read-outs stand apart in the source and are kept apart here.

Legend:
[1] = target: T1, SARS-CoV-2 PLpro (nsp3 1564–1878) (Severe acute respiratory syndrome coronavirus 2, UniProt P0DTD1); experiment: biochemical; parameters: FRET-quenched peptide (Pro3) cleavage by PLpro, 10 min pre-incubation, slope over 20 min, normalised to no-compound control; settings: low concentration screen, read-out: % of control remaining
[2] = target: T1, SARS-CoV-2 PLpro (nsp3 1564–1878); experiment: biochemical; parameters: FRET-quenched peptide (Pro3) cleavage by PLpro, 10 min pre-incubation, slope over 20 min, normalised to no-compound control; settings: high concentration screen, read-out: % of control remaining

## CCCCOc1ccc(C(=O)Nc2ccc(F)cc2F)cc1 [VU 0357121]
[1]; Well no.=4932
  remaining activity at 1.25 µM: 99.8%
[1]; Well no.=7857
  remaining activity at 1.25 µM: 105%
[2]; Well no.=4932
  remaining activity at 3.75 µM: 98.8%
[2]; Well no.=7857
  remaining activity at 3.75 µM: 107%

## COc1cc(NC(=O)c2ccccn2)ccc1Cl [VU 0361737]
[1]; Well no.=4837
  remaining activity at 1.25 µM: 98.5%
[2]; Well no.=4837
  remaining activity at 3.75 µM: 106%

## O=C(Nc1ccc(S(=O)(=O)Nc2ccccc2Cl)c(Cl)c1)c1ccccn1 [VU 0364439]
[1]; Well no.=4978
  remaining activity at 1.25 µM: 96.2%
[2]; Well no.=4978
  remaining activity at 3.75 µM: 96.2%

## O=C1C(=O)N(Cc2ccc(-c3ccccc3)cc2)c2ccc(OC(F)(F)F)cc21 [VU 0365114]
[1]; Well no.=8036
  remaining activity at 1.25 µM: 97.4%
[2]; Well no.=8036
  remaining activity at 3.75 µM: 94.8%

## CN1CCN(c2cc(-c3ccccc3)nc(N)n2)CC1 [VUF10460]
[1]; Well no.=7041
  remaining activity at 1.25 µM: 105%
[2]; Well no.=7041
  remaining activity at 3.75 µM: 105%

## COc1ccccc1NC(=O)Nc1nc(-c2cccnc2)nc2ccccc12 [VUF 5574]
[1]; Well no.=1384
  remaining activity at 1.25 µM: 101%
[2]; Well no.=1384
  remaining activity at 3.75 µM: 97.5%

## CN1CCN(c2nc3ccccc3nc2Cl)CC1 [VUF 10166]
[1]; Well no.=4831
  remaining activity at 1.25 µM: 99.1%
[2]; Well no.=4831
  remaining activity at 3.75 µM: 103%

## NC(=O)c1ccc(N(C(N)=O)c2c(F)cccc2F)nc1-c1ccc(F)cc1F [VX702]
[1]; Well no.=2943
  remaining activity at 1.25 µM: 104%
[2]; Well no.=2943
  remaining activity at 3.75 µM: 105%

## CC(C)(C)C#Cc1cc(N(C(=O)[C@H]2CC[C@H](C)CC2)[C@H]2CC[C@H](O)CC2)c(C(=O)O)s1 [VX-222]
[1]; Well no.=4903
  remaining activity at 1.25 µM: 97.1%
[2]; Well no.=4903
  remaining activity at 3.75 µM: 96.2%

## CC(C)(CO)c1cc2cc(NC(=O)C3(c4ccc5c(c4)OC(F)(F)O5)CC3)c(F)cc2n1C[C@@H](O)CO [VX-661]
[1]; Well no.=4780
  remaining activity at 1.25 µM: 97%
[2]; Well no.=4780
  remaining activity at 3.75 µM: 94.1%

## Cc1ccc(NC(=O)C2(c3ccc4c(c3)OC(F)(F)O4)CC2)nc1-c1cccc(C(=O)O)c1 [VX-809]
[1]; Well no.=4961
  remaining activity at 1.25 µM: 95.6%
[2]; Well no.=4961
  remaining activity at 3.75 µM: 95%

## Cc1ccc2c(=O)c3cccc(CC(=O)O)c3oc2c1C [Vadimezan]
[1]; Well no.=8465
  remaining activity at 1.25 µM: 104%
[2]; Well no.=8465
  remaining activity at 3.75 µM: 97.4%

## CC(C)[C@H](N)C(=O)OCCOCn1cnc2c(=O)nc(N)[nH]c21 [Valaciclovir]
[1]; Well no.=2012
  remaining activity at 1.25 µM: 98.7%
[2]; Well no.=2012
  remaining activity at 3.75 µM: 97.7%

## Cc1onc(-c2ccccc2)c1-c1ccc(S(N)(=O)=O)cc1 [Valdecoxib]
[1]; Well no.=4694
  remaining activity at 1.25 µM: 97.5%
[2]; Well no.=4694
  remaining activity at 3.75 µM: 95.9%

## CC(C)[C@H](N)C(=O)OCC(CO)OCn1cnc2c(=O)nc(N)[nH]c21 (stereo partly shown) [Valganciclovir (hydrochloride)]
[1]; Well no.=8044
  remaining activity at 1.25 µM: 94.6%
[2]; Well no.=8044
  remaining activity at 3.75 µM: 93.4%

## CC(C)[C@@H]1NC(=O)[C@H](C)OC(=O)[C@@H](C(C)C)NC(=O)[C@@H](C(C)C)OC(=O)[C@H](C(C)C)NC(=O)[C@H](C)OC(=O)[C@@H](C(C)C)NC(=O)[C@@H](C(C)C)OC(=O)[C@H](C(C)C)NC(=O)[C@H](C)OC(=O)[C@@H](C(C)C)NC(=O)[C@@H](C(C)C)OC1=O [Valinomycin]
[1]; Well no.=3631
  remaining activity at 1.25 µM: 99.9%
[2]; Well no.=3631
  remaining activity at 3.75 µM: 101%

## CCC(C)C(CC)C(N)=O (stereo not shown) [Valnoctamide]
[1]; Well no.=5429
  remaining activity at 1.25 µM: 103%
[2]; Well no.=5429
  remaining activity at 3.75 µM: 110%

## CCCC(CCC)C(=O)O [Valproic acid sodium]
[1]; Well no.=812
  remaining activity at 1.25 µM: 99.6%
[2]; Well no.=812
  remaining activity at 3.75 µM: 99.4%

## CCCC(CCC)C(=O)O [Valproic acid]
[1]; Well no.=1758
  remaining activity at 1.25 µM: 98.8%
[2]; Well no.=1758
  remaining activity at 3.75 µM: 100%

## CCCC(CCC)C(N)=O [Valpromide]
[1]; Well no.=5383
  remaining activity at 1.25 µM: 103%
[2]; Well no.=5383
  remaining activity at 3.75 µM: 109%

## CCCCC(=O)N(Cc1ccc(-c2ccccc2-c2nnn[nH]2)cc1)[C@H](C(=O)O)C(C)C [Valsartan]
[1]; Well no.=7542
  remaining activity at 1.25 µM: 94.7%
[1]; Well no.=8247
  remaining activity at 1.25 µM: 105%
[2]; Well no.=7542
  remaining activity at 3.75 µM: 98%
[2]; Well no.=8247
  remaining activity at 3.75 µM: 99.1%

## C/C=C/C[C@@H](C)C(=O)[C@H]1C(=O)N[C@@H](C(C)C)C(=O)N(C)CC(=O)N(C)[C@@H](CC(C)C)C(=O)N[C@@H](C(C)C)C(=O)N(C)[C@@H](CC(C)C)C(=O)N[C@@H](C)C(=O)N[C@H](C)C(=O)N(C)[C@@H](CC(C)C)C(=O)N(C)[C@@H](CC(C)C)C(=O)N(C)[C@@H](C(C)C)C(=O)N1C [Valspodar]
[1]; Well no.=8226
  remaining activity at 1.25 µM: 94.7%
[2]; Well no.=8226
  remaining activity at 3.75 µM: 94.7%

## CN[C@H](CC(C)C)C(=O)N[C@H]1C(=O)N[C@@H](CC(N)=O)C(=O)N[C@H]2C(=O)N[C@H]3C(=O)N[C@H](C(=O)N[C@H](C(=O)O)c4cc(O)cc(O)c4-c4cc3ccc4O)[C@H](O)c3ccc(c(Cl)c3)Oc3cc2cc(c3O[C@@H]2O[C@H](CO)[C@@H](O)[C@H](O)[C@H]2O[C@H]2C[C@](C)(N)[C@H](O)[C@H](C)O2)Oc2ccc(cc2Cl)[C@H]1O [Vancomycin (hydrochloride)]
[1]; Well no.=7882
  remaining activity at 1.25 µM: 103%
[2]; Well no.=7882
  remaining activity at 3.75 µM: 98.3%

## COc1cc2/c(=N/c3ccc(Br)cc3F)nc[nH]c2cc1OCC1CCN(C)CC1 [Vandetanib]
[1]; Well no.=2799
  remaining activity at 1.25 µM: 101%
[2]; Well no.=2799
  remaining activity at 3.75 µM: 101%

## CCN(CC)C(=O)c1ccc(O)c(OC)c1 [Vanillic acid diethylamide]
[1]; Well no.=644
  remaining activity at 1.25 µM: 97.3%
[2]; Well no.=644
  remaining activity at 3.75 µM: 102%

## COc1cc(C=O)ccc1O [Vanillin]
[1]; Well no.=7455
  remaining activity at 1.25 µM: 103%
[2]; Well no.=7455
  remaining activity at 3.75 µM: 106%

## CCCc1nc(C)c2c(O)nc(-c3cc(S(=O)(=O)N4CCN(CC)CC4)ccc3OCC)nn12 [Vardenafil HCl Trihydrate]
[1]; Well no.=8292
  remaining activity at 1.25 µM: 101%
[2]; Well no.=8292
  remaining activity at 3.75 µM: 94.4%

## CCCc1nc(C)c2c(=O)nc(-c3cc(S(=O)(=O)N4CCN(CC)CC4)ccc3OCC)[nH]n12 [Vardenafil]
[1]; Well no.=1780
  remaining activity at 1.25 µM: 97.7%
[2]; Well no.=1780
  remaining activity at 3.75 µM: 97.8%

## c1cnc2cc3c(cc2n1)[C@@H]1CNC[C@H]3C1 [Varenicline tartrate]
[1]; Well no.=4855
  remaining activity at 1.25 µM: 98.1%
[2]; Well no.=4855
  remaining activity at 3.75 µM: 103%

## CCc1c(C(=O)C(N)=O)c2c(OCC(=O)O)cccc2n1Cc1ccccc1 [Varespladib (LY315920)]
[1]; Well no.=4663
  remaining activity at 1.25 µM: 105%
[2]; Well no.=4663
  remaining activity at 3.75 µM: 104%

## COC(=O)c1ccc2c(C(=Nc3ccc(N(C)C(=O)CN4CCN(C)CC4)cc3)c3ccccc3)c(O)[nH]c2c1 [Vargatef]
[1]; Well no.=2847
  remaining activity at 1.25 µM: 103%
[2]; Well no.=2847
  remaining activity at 3.75 µM: 104%

## O[C@H]1CCN2Cc3ccccc3N=C12 [Vasicine]
[1]; Well no.=3406
  remaining activity at 1.25 µM: 97.8%
[2]; Well no.=3406
  remaining activity at 3.75 µM: 94.4%

## Clc1ccc(Nc2nnc(Cc3ccncc3)c3ccccc23)cc1 [Vatalanib]
[1]; Well no.=1619
  remaining activity at 1.25 µM: 97%
[2]; Well no.=1619
  remaining activity at 3.75 µM: 95.2%
